Results reported in ChEMBL document CHEMBL3507680, “University of Dundee, Gates Library screen for HepG2 cell viability”.

Test: Human HepG2 cell viability assay in 384 well format
Assay type: toxicity, cell-based
Set-up: dose 125 nL, time 70.5 hour; concentration not given beside the values
Details: HepG2 cells, read-out: Inhibition

SMILES | cytotoxicity at 70.5 h [%]
CC(CN1CCOCC1)OC(=O)c1ccccc1Cl (centres undefined) | -19.2
Cc1ccc2[nH]c3c(c2c1)CN(C(=O)CN(C)CC1OCCO1)CC3 | -1.1
COc1ccc(NC(=O)C2CC(=O)n3cnnc3S2)cc1 (centres undefined) | 2.23
Cc1ccc2c(c1)c(Sc1ccccc1)c(CC(=O)O)n2C | 1.6
COC(=O)COn1c(SCC(=O)OC)nc2ccccc2c1=O | -6.15
COC(=O)[C@@H](NC(=O)Nc1ccc(C(C)=O)cc1)C(C)C | 13.3
CCCc1ncc(C(=O)c2ccc(OC)cc2)n1C | 14.7
O=C(CN1CCN(C(=O)c2ccccc2)CC1)Nc1ccc(Br)cn1 | -8.87
Cn1c2ccccc2c2ncn(CCCN3CCOCC3)c(=O)c21 | 12.2
COc1cccc(NC(=O)C2CC(=O)n3cnnc3S2)c1 (centres undefined) | 2.31
N#Cc1c2n(c3c(N)ncnc13)CCCCC2 | 16.8
CCN(CC)C(=O)CSc1nnc(CCNC(=O)OC(C)(C)C)o1 | -11.3
CC(C)[C@H](NC(=O)N1CCC(Cc2ccccc2)CC1)C(=O)O | -8.02
CCC1(CC)C(=O)NC(=O)N/C1=N/c1cccc(OC)c1 | 26.5
CNCc1cc(C)n(-c2ccccc2OC)c1C | -5.13
Nc1cccnc1N1CCN(c2ccccc2)CC1 | -0.724
O=C(O)CCn1ccc(=O)c2cc(F)ccc21 | -11.9
Cn1nc(-c2ccccc2)c(Cl)c1C(=O)O | -25.8
O=C(O)c1cn(-c2ccccn2)c(=O)c2ccccc12 | -11.1
COc1ccc(-c2noc(C(N)CCSC)n2)cc1 (centres undefined) | 23.9
COc1ccc(-c2noc(C(N)CCSC)n2)cc1OC (centres undefined) | -3.12
CCCOc1ccc(CC2=NC(C)(CO)CO2)cc1 (centres undefined) | 12
COC(=O)N1CC[C@@]2(O)CCCC[C@H]2[C@@H]1c1ccc2c(c1)OCO2 | -4.3

SMILES | cytotoxicity at 70.5 h [%]
O=C1Nc2ccccc2/C1=C1\CCCCCN1 | -9.34
Cc1ccc(C(=O)N2CC[C@@]3(O)CCCC[C@H]3C2)cc1 | 7.79
CC[C@]12CN3C[C@](CC)(CN(C1)C3c1[nH]c(=O)[nH]c(=O)c1C)C2=O (some centres undefined) | 19.3
CC[C@]12CN3C[C@](C)(CN(C1)C3c1[nH]c(=O)[nH]c(=O)c1C)C2=O (some centres undefined) | -2.75
CC(C)CCN1C(=O)C2(NC(=O)c3ccccc3O2)c2ccccc21 (centres undefined) | -15.1
COCCN1C(=O)c2ccc(C(=O)NCCc3c[nH]cn3)cc2C1=O | -5.32
CNC(=O)c1cn(C)c(-c2nc3cc(NC(C)=O)ccc3n2C)c1OC | -17.5
CSCC[C@H](NC(=O)CCn1ccc2c(Cl)cccc21)C(=O)O | -2.74
COc1ccc2c(ccn2CCC(=O)NCCCC(=O)O)c1 | -10.4
Cc1cc2ccccc2n1CC(=O)N[C@@H](C)C(=O)O | -19.5
CSCC[C@H](NC(=O)CCn1cc(C(C)=O)c2ccccc21)C(=O)O | -8.28
COc1cccc(-c2nc(C)c(C(=O)N[C@@H](CC(C)C)C(=O)O)s2)c1 | -18.1
Cn1ccc2c(C(=O)N3CC[C@@]4(O)CCCC[C@H]4C3)cccc21 | 0.292
COc1cccc2c1ccn2CCNC(C)=O | -16.2
COc1cc2nc(C)n(CC(=O)NCC(C)C)c(=O)c2cc1OC | -15.9
COc1cc2nc(C)n(CC(=O)NCCN(C)C)c(=O)c2cc1OC | -17.2
COc1ccc(C2CC(=O)Oc3cc(C)[nH]c(=O)c32)cc1O (centres undefined) | -19.6
COc1cc(C2CC(=O)Oc3cc(C)[nH]c(=O)c32)ccc1OCC(=O)O (centres undefined) | -14.1
O=C(NCCO)c1cc(-c2ccc3c(c2)CCO3)n[nH]1 | 18
CN(C)CCCNC(=O)c1cc(-c2ccc3c(c2)CCO3)n[nH]1 | 10.7
CC1(CO)COC(Cc2ccc(Cl)cc2)=N1 (centres undefined) | 21
CC[S+](CC)[c-]1c(=O)[nH]c(=O)n(CCc2ccc(F)cc2)c1=O | 3.7
C[S+](C)[c-]1c(=O)[nH]c(=O)n(CCc2ccc(F)cc2)c1=O | -2.07

SMILES | cytotoxicity at 70.5 h [%]
CN1CCC(N(C)C(=O)Nc2ccc(Cl)cc2)CC1 | -2.16
COC(=O)COn1c(OC)nc2ccccc2c1=O | -11.7
O=C1Nc2ccccc2/C1=C1\CCCCN1 | -10.3
CSCC[C@H](NC(=O)N1CCC(Cc2ccccc2)CC1)C(=O)O | -13.4
CCNCCC(Cc1ccccc1)c1ccco1 (centres undefined) | -8.72
CC1=C(C#N)C(=O)N(C)C(=O)/C1=C\C1=Cc2ccccc2OC1 | 8.21
COCCCN(Cc1ccccn1)S(=O)(=O)c1ccc(OC)cc1 | -14.1
Cn1nnc2c(sc3nc(N4CCOCC4)c4c(c32)CCC4)c1=O | -16
CC[C@H](C)[C@H](NC(=O)c1ccc(-n2cnnn2)cc1)C(=O)OC | 10.1
CSCC[C@@H](CO)NC(=O)c1ccc2nc(NS(C)(=O)=O)sc2c1 | -1
Cc1nc(-c2cnn(C)c2)nc2c1CN(C(=O)c1ccc[nH]1)CC2 | -6.12
CS(=O)(=O)N1C[C@H]2CCC[C@@]2(COCC2CCOCC2)C1 | -4.48
CCc1ccc2c(C3CN(C(C)=O)C3)ncn2c1 | -3.55
CC(C)N1CCc2ncn(C)c2C1C(=O)NCCN1CCCC1 (centres undefined) | -8.41
O=C(c1ncccn1)N1C[C@@H]2CN(CC3CC3)CCO[C@@H]2C1 | -13.4
Cc1nnc2n1CCN(C(=O)c1cc(C)n(-c3ccccc3)c1C)C2 | -4.87
CCOc1ccnc(N2CCN(C(=O)c3ccc(C#N)cc3)CC2)n1 | 2.75
CCOc1ccnc(N2CCN(C(=O)c3ccncc3)CC2)n1 | -9.15
CC(NC(=O)NCc1c(F)cccc1Cl)(C(=O)O)c1ccco1 (centres undefined) | -8.24
Cc1cnn(CC2CCCCN2C(=O)c2c(C)noc2C)c1 (centres undefined) | -0.615
Cc1ncc2c(n1)CN(CC(=O)NCCOc1ccccc1)CC2 | -11.5
c1ccc(-n2ccc(CNCC3CCCN3c3cccnn3)n2)cc1 (centres undefined) | 0.819
CC(C)c1n[nH]c(C2CN(C(=O)c3cnccn3)CCO2)n1 (centres undefined) | 18.8

SMILES | cytotoxicity at 70.5 h [%]
CCc1noc(C)c1C(=O)N1CCCC1Cn1cccn1 (centres undefined) | -3.75
O=C(NCc1ccccc1Cn1cncn1)C1CC1 | -11.8
CC(NC(=O)CSCC#N)c1cccc(Cl)c1 (centres undefined) | -9.11
O=C(CCC1CCCO1)NCc1ccccc1Cn1cncn1 (centres undefined) | -9.42
CCc1nc(C(=O)N2CCCC2)nn1-c1c(Cl)cccc1Cl | -2.51
C=C(C)CN1CCC(NC(=O)c2scnc2C)CC1 | -5.87
Cc1nn(C)c(N2CCOCC2)c1CNC(C)c1cccs1 (centres undefined) | -1.47
Cc1nccn1-c1cc(CNC(=O)C2CCCO2)ccn1 (centres undefined) | -7.47
Cc1cnc(C(=O)N2CCCC(n3cccn3)C2)cn1 (centres undefined) | -1.48
COc1ccccc1OCCNC(=O)CN1CCc2cncnc2C1 | -5.72
CC(C)(C)c1n[nH]c(C2CN(C(=O)C3=COCCC3)CCO2)n1 (centres undefined) | -6.48
Cc1nc(C(=O)N2CCOC(c3nc(C(C)C)n[nH]3)C2)c[nH]1 (centres undefined) | -2.01
COc1c(CNCc2ccc3c(c2)OCCO3)c(C(C)C)nn1C | -6.06
Cc1[nH]nc2ncc(C(=O)N3CCN(CCC(C)C)CC3)cc12 | 25.8
Cc1noc(C(C)N2CCN(Cc3ccco3)CC2)n1 (centres undefined) | -11.9
O=C(NCCN1CCCS1(=O)=O)c1scnc1Cl | -24.6
O=C(CCc1ccco1)Nc1cc(C(F)(F)F)c[nH]c1=O | -8.18
CC1CCCN(CCNC(=O)c2scnc2Cl)C1 (centres undefined) | -7.04
CN(Cc1ccco1)C(=O)Nc1cc(C(F)(F)F)c[nH]c1=O | -14.9
CC(=O)N1CCCN(C(=O)CCc2c(C)nc3ccnn3c2C)CC1 | -15.3
COc1ccnc(N2CCN(C(=O)CN3CCOCC3)CC2)n1 | 8.59
CCS(=O)(=O)N1CCN(C(=O)c2cnc3[nH]nc(C)c3c2)CC1 | -5.38
CCn1ccnc1CN1CCN(CCOc2ccccc2C#N)CC1 | -19.6

SMILES | cytotoxicity at 70.5 h [%]
O=C(COCc1ccco1)Nc1cc(C(F)(F)F)c[nH]c1=O | 31.5
Cc1nc(CN2CCc3nn(C)c(=O)cc3C2)oc1C | -9.42
CC(=O)Nc1nc(C(=O)N2CCCC(n3nc(C)nc3C)C2)cs1 (centres undefined) | -10.7
Nc1cccnc1N1CCCCCC1 | 2.46
CC(CN1CCOCC1)OC(=O)c1ccccc1I (centres undefined) | -15.6
CCC(C)[C@H](N)c1nnc(SCC(=O)Nc2ccc(Br)cc2)o1 (some centres undefined) | -13.2
CSCC[C@H](N)c1nnc(SCC(=O)Nc2ccc(Br)cc2)o1 | -18.7
N[C@@H](Cc1ccccc1)c1nnc(S(=O)(=O)Cc2ccc(Cl)cc2)o1 | 12.7
CC(C)c1nn(C)c(Cl)c1CNCc1ccc2c(c1)OCO2 | -5.25
CN(C)CCCNCCC(c1ccccc1)C1CCOC(C)(C)C1 (centres undefined) | -3.41
CCN(CC)c1ccc2ccc(C(=O)N3CCCCO3)cn12 | 3.7
Cn1ccc(C(=O)N2C[C@@H]3CN(CC4CC4)CCO[C@@H]3C2)n1 | 11.6
Cc1cccc(COC[C@@]23CCC[C@@H]2CN(S(=O)(=O)N(C)C)C3)n1 | -4.49
CS(=O)(=O)N1C[C@@H]2COC[C@]2(CN2CCOCC2)C1 | -8.04
CN1CCC2(COCCN(Cc3ccc4c(c3)OCO4)C2)C1 (centres undefined) | 13.5
Cc1noc(C)c1CN1CCc2ncc(CN(C)C)n2CC1 | -8.78
O=C(O)c1cc2c(nc1N1CCCC1)CCN(C1CCOCC1)CC2 | 12
c1coc(CN2C[C@@H]3OCCN(CCN4CCCC4)[C@@H]3C2)c1 | -7.43
Fc1ccccc1CN1C[C@@H]2CN(Cc3cccnc3)CCO[C@@H]2C1 | -11.8
COc1ccccc1CN1C[C@@H]2CN(Cc3cccnc3)CCO[C@@H]2C1 | 12.8
Fc1ccc(CN2C[C@@H]3OCCN(CCN4CCCC4)[C@@H]3C2)cc1 | -6.53
COc1no[n+]([O-])c1-c1ccccc1 | 2.46
